Experimental data: patent US12371454B2, “Cyclic peptide compound having Kras inhibitory action” (priority 2019, dated 2025)
Starred links: 1 amine or outer side, 2 acyl side, 3 side chain; linkers in the order of their positions; H or OH if unused. Positions of bridges follow the written chain, without caps; N, C: chain ends. Non-standard residues stand in square brackets, D forms with d. Residues, ends and D or L forms follow the SMILES beside them. *: point of attachment. hPhe(3,5-F2-4-CF3) = N[C@@H](CCc1cc(F)c(C(F)(F)F)c(F)c1)C(=O)O; hPhe(3-Cl-4-CF3) = N[C@@H](CCc1ccc(C(F)(F)F)c(Cl)c1)C(=O)O; hPhe(3-F,4-CF3) = N[C@@H](CCc1ccc(C(F)(F)F)c(F)c1)C(=O)O; NMePhe(4-CF3) = CN[C@@H](Cc1ccc(C(F)(F)F)cc1)C(=O)O; NMePhe(4-Me) = CN[C@@H](Cc1ccc(C)cc1)C(=O)O; NMedβ3hAla = C[C@H](CC(=O)[*:2])N(C)[*:1]; NMeAla(cPent) = CN[C@@H](CC1CCCC1)C(=O)O; NMeGly(cPent) = CN[C@H](C(=O)O)C1CCCC1; Pro(4,4-F2) = O=C(O)[C@@H]1CC(F)(F)CN1; NMeGly(cBu) = CN[C@H](C(=O)O)C1CCC1; NMeCha = CN[C@@H](CC1CCCCC1)C(=O)O; cisHyp = O=C(O)[C@@H]1C[C@H](O)CN1; NEtLeu = CCN[C@@H](CC(C)C)C(=O)O; NMeAhp(2) = CCCCC[C@H](NC)C(=O)O; NMeCba = CN[C@@H](CC1CCC1)C(=O)O; NMeChg = CN[C@H](C(=O)O)C1CCCCC1; NMeI = CC[C@H](C)[C@H](NC)C(=O)O; NMeT = CN[C@H](C(=O)O)[C@@H](C)O; NMeD = CN[C@@H](CC(=O)O)C(=O)O; NMeL = CN[C@@H](CC(C)C)C(=O)O; NMeV = CN[C@H](C(=O)O)C(C)C; d(β3hA) = C[C@@H](N)CC(=O)O; Azetidin(1-yl) = C1CN(*)C1; NMeAbu = CC[C@H](NC)C(=O)O; Morpholide = C1CN(*)CCO1; NMeA = CN[C@@H](C)C(=O)O; Piperidide = C1CCN(*)CC1; Ac5c = NC1(C(=O)O)CCCC1; Aze = O=C(O)[C@@H]1CCN1; X30 = COc1cccc(C*)c1; Sar = CNCC(=O)O

test system: Human pancreatic cancer cell line AsPC-1; assay: Measurement of AsPC-1 cell growth inhibition (AsPC-1 CGI); format: cell-based; details: 96 h
Method in brief: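 AsPC-1 cells in 15% FBS RPMI-1640 were exposed to test compound for 96 hours at 37° C, with CellTiter-Glo as endpoint.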

| Compound | IC50 [nM] |
| --- | --- |
| CC[C@H](C)[C@@H]1NC(=O)[C@H](C2CCC2)N(C)C(=O)C[C@@H](C(=O)N2CCCCC2)N(C)C(=O)[C@H]([C@@H](C)CC)N(C)C(=O)C2(CCCC2)NC(=O)[C@@H]2CCCN2C(=O)[C@H](CCc2ccc(C(F)(F)F)c(Cl)c2)NC(=O)CN(C)C(=O)[C@H](CC2CCCCC2)N(C)C(=O)[C@@H]2CCN2C(=O)[C@H](C)N(C)C1=O [Compound 959] ([NMeGly(cBu)]I[NMeA][Aze][NMeCha][Sar][hPhe(3-Cl-4-CF3)]P[Ac5c][NMeI][NMeD]-Piperidide; lactam N-11) | 20 to 50 |
| CCCCC[C@H]1C(=O)N[C@@H]([C@@H](C)CC)C(=O)N[C@@H](C)C(=O)N2CC[C@H]2C(=O)N(C)[C@@H](CC2CCCCC2)C(=O)N(C)CC(=O)N[C@@H](CCc2ccc(C(F)(F)F)c(Cl)c2)C(=O)N2CCC[C@H]2C(=O)NC2(CCCC2)C(=O)N(C)[C@@H](C2CCCC2)C(=O)N(C)[C@H](C(=O)N2CCC2)CC(=O)N1C [Compound 155] ([NMeAhp(2)]IA[Aze][NMeCha][Sar][hPhe(3-Cl-4-CF3)]P[Ac5c][NMeGly(cPent)][NMeD]-{Azetidin(1-yl)}; lactam N-11) | 20 to 50 |
| CC[C@H](C)[C@@H]1NC(=O)[C@H](CC(C)C)N(C)C(=O)C[C@@H](C(=O)N2CCCCC2)N(C)C(=O)[C@H](C(C)C)N(C)C(=O)C2(CCCC2)NC(=O)[C@@H]2CCCN2C(=O)[C@H](CCc2ccc(C(F)(F)F)c(Cl)c2)NC(=O)CN(C)C(=O)[C@H](CC2CCCCC2)N(C)C(=O)[C@@H]2CCN2C(=O)[C@H]([C@@H](C)O)N(C)C1=O [Compound 496] ([NMeL]I[NMeT][Aze][NMeCha][Sar][hPhe(3-Cl-4-CF3)]P[Ac5c][NMeV][NMeD]-Piperidide; lactam N-11) | 100 to 500 |
| CC[C@H](C)[C@@H]1NC(=O)[C@H](CC(C)C)N(C)C(=O)C[C@@H](C(=O)N2CCCCC2)N(C)C(=O)[C@H](CC(C)C)N(C)C(=O)C2(CCCC2)NC(=O)[C@@H]2C[C@H](O)CN2C(=O)[C@H](CCc2ccc(C(F)(F)F)c(F)c2)NC(=O)CN(C)C(=O)[C@H](CC2CCCCC2)N(C)C(=O)CN(C)C(=O)CN(C)C1=O [Compound 544, (3S,9S,18S,21S,25S,28S,34S,36S)-9-(cyclohexylmethyl)-3-[2-[3-fluoro-4-(trifluoromethyl)phenyl]ethyl]-36-hydroxy-21,28-diisobutyl-7,10,13,16,22,26,29-heptamethyl-18-[(1S)-1-methylpropyl]-25-(piperidine-1-carbonyl)spiro[1,4,7,10,13,16,19,22,26,29,32-undecazabicyclo[32.3.0]heptatriacontane-31,1′-cyclopentane]-2,5,8,11,14,17,20,23,27,30,33-undecone] ([NMeL]I[Sar][Sar][NMeCha][Sar][hPhe(3-F,4-CF3)][cisHyp][Ac5c][NMeL][NMeD]-Piperidide; lactam N-11) | 100 to 500 |
| CC[C@H](C)[C@@H]1NC(=O)[C@H](CC)N(C)C(=O)C[C@@H](C(=O)N2CCCCC2)N(C)C(=O)[C@H](C(C)C)N(C)C(=O)C2(CCCC2)NC(=O)[C@@H]2CCCN2C(=O)[C@H](CCc2ccc(C(F)(F)F)c(Cl)c2)NC(=O)CN(C)C(=O)[C@H](CC2CCCCC2)N(C)C(=O)[C@@H]2CCN2C(=O)[C@H](C)N(C)C1=O [Compound 1638] ([NMeAbu]I[NMeA][Aze][NMeCha][Sar][hPhe(3-Cl-4-CF3)]P[Ac5c][NMeV][NMeD]-Piperidide; lactam N-11) | 100 to 500 |
| CC[C@H](C)[C@@H]1NC(=O)[C@H](CC2CCC2)N(C)C(=O)C[C@@H](C)NC(=O)[C@H](C(C)C)N(C)C(=O)C2(CCCC2)NC(=O)[C@@H]2CCCN2C(=O)[C@H](CCc2ccc(C(F)(F)F)c(Cl)c2)NC(=O)CN(C)C(=O)[C@H](CC2CCCCC2)N(C)C(=O)[C@@H]2CCN2C(=O)[C@H](C)N(C)C1=O [Compound 455] (cyclo([Ac5c][NMeV][d(β3hA)][NMeCba]I[NMeA][Aze][NMeCha][Sar][hPhe(3-Cl-4-CF3)]P)) | 100 to 500 |
| CC[C@H](C)[C@@H]1NC(=O)[C@H](CC(C)C)N(CC)C(=O)C[C@@H](C(=O)N2CCOCC2)N(C)C(=O)[C@H](C2CCCC2)N(C)C(=O)C2(CCCC2)NC(=O)[C@@H]2CCCN2C(=O)[C@H](CCc2ccc(C(F)(F)F)c(Cl)c2)NC(=O)CN(C)C(=O)[C@H](CC2CCCCC2)N(C)C(=O)[C@@H]2CCN2C(=O)[C@H](C)NC1=O [Compound 1266] ([NEtLeu]IA[Aze][NMeCha][Sar][hPhe(3-Cl-4-CF3)]P[Ac5c][NMeGly(cPent)][NMeD]-Morpholide; lactam N-11) | 100 to 500 |
| CC[C@H](C)[C@@H]1NC(=O)[C@H](CC(C)C)N(C)C(=O)C[C@@H](C(=O)N2CCCCC2)N(C)C(=O)[C@H](CC(C)C)N(C)C(=O)C2(CCCC2)NC(=O)[C@@H]2C[C@H](OCc3cccc(OC)c3)CN2C(=O)[C@H](CCc2ccc(C(F)(F)F)c(F)c2)NC(=O)CN(C)C(=O)[C@H](CC2CCCCC2)N(C)C(=O)CN(C)C(=O)CN(C)C1=O [Compound 2136] ([NMeL]I[Sar][Sar][NMeCha][Sar][hPhe(3-F,4-CF3)][cisHyp](X30)[Ac5c][NMeL][NMeD]-Piperidide; lactam N-11) | > 500 |
| CC[C@H](C)[C@@H]1NC(=O)[C@H](C2CCC2)N(C)C(=O)C[C@@H](C(=O)N2CCCCC2)N(C)C(=O)[C@H](C(C)C)N(C)C(=O)C2(CCCC2)NC(=O)[C@@H]2CCCN2C(=O)[C@H](CCc2ccc(C(F)(F)F)c(Cl)c2)NC(=O)CN(C)C(=O)[C@H](CC2CCCCC2)N(C)C(=O)[C@@H]2CCN2C(=O)[C@H](C)N(C)C1=O [Compound 1036] ([NMeGly(cBu)]I[NMeA][Aze][NMeCha][Sar][hPhe(3-Cl-4-CF3)]P[Ac5c][NMeV][NMeD]-Piperidide; lactam N-11) | 100 to 500 |
| CC[C@H](C)[C@@H]1NC(=O)[C@H](CC(C)C)N(C)C(=O)C[C@@H](C(=O)N2CCCCC2)N(C)C(=O)[C@H]([C@@H](C)CC)N(C)C(=O)C2(CCCC2)NC(=O)[C@@H]2CCCN2C(=O)[C@H](CCc2ccc(C(F)(F)F)c(F)c2)NC(=O)CN(C)C(=O)[C@H](CC2CCCCC2)N(C)C(=O)[C@@H]2CCN2C(=O)[C@H](C)N(C)C1=O [Compound 409] ([NMeL]I[NMeA][Aze][NMeCha][Sar][hPhe(3-F,4-CF3)]P[Ac5c][NMeI][NMeD]-Piperidide; lactam N-11) | 50 to 100 |
| CC[C@H](C)[C@@H]1NC(=O)[C@H](CC(C)C)N(C)C(=O)C[C@@H](C)N(C)C(=O)[C@H](C(C)C)N(C)C(=O)C2(CCCC2)NC(=O)[C@@H]2CCCN2C(=O)[C@H](CCc2ccc(C(F)(F)F)c(Cl)c2)NC(=O)CN(C)C(=O)[C@H](CC2CCCC2)N(C)C(=O)CN(C)C(=O)CN(C)C1=O [Compound 88] (cyclo([Ac5c][NMeV][NMedβ3hAla][NMeL]I[Sar][Sar][NMeAla(cPent)][Sar][hPhe(3-Cl-4-CF3)]P)) | 50 to 100 |

Now from value to compound:

| IC50 [nM] | Compound |
| --- | --- |
| 100 to 500 | CC[C@H](C)[C@@H]1NC(=O)[C@H](CC(C)C)N(C)C(=O)C[C@@H](C)N(C)C(=O)[C@H](C2CCCCC2)N(C)C(=O)C2(CCCC2)NC(=O)[C@@H]2CC(F)(F)CN2C(=O)[C@H](CCc2cc(F)c(C(F)(F)F)c(F)c2)NC(=O)CN(C)C(=O)[C@H](Cc2ccc(C(F)(F)F)cc2)N(C)C(=O)[C@@H]2CCN2C(=O)[C@H](C)N(C)C1=O [Compound 606] (cyclo([Ac5c][NMeChg][NMedβ3hAla][NMeL]I[NMeA][Aze][NMePhe(4-CF3)][Sar][hPhe(3,5-F2-4-CF3)][Pro(4,4-F2)])) |
| 100 to 500 | CC[C@H](C)[C@@H]1NC(=O)[C@H](C)N(C)C(=O)C[C@@H](C)NC(=O)[C@H](C2CCCC2)N(C)C(=O)C2(CCCC2)NC(=O)[C@@H]2CCCN2C(=O)[C@H](CCc2ccc(C(F)(F)F)c(Cl)c2)NC(=O)CN(C)C(=O)[C@H](Cc2ccc(C)cc2)N(C)C(=O)[C@@H]2CCN2C(=O)[C@H](C)N(C)C1=O [Compound 1514] (cyclo([Ac5c][NMeGly(cPent)][d(β3hA)][NMeA]I[NMeA][Aze][NMePhe(4-Me)][Sar][hPhe(3-Cl-4-CF3)]P)) |
| 20 to 50 | CC[C@H](C)[C@@H]1NC(=O)[C@H](CC(C)C)N(C)C(=O)C[C@@H](C(=O)N(C)C)N(C)C(=O)[C@H](C2CCCCC2)N(C)C(=O)C2(CCCC2)NC(=O)[C@@H]2CCCN2C(=O)[C@H](CCc2ccc(C(F)(F)F)c(Cl)c2)NC(=O)CN(C)C(=O)[C@H](CC2CCCCC2)N(C)C(=O)[C@@H]2CCN2C(=O)[C@H](C)N(C)C1=O [Compound 1675] ([NMeL]I[NMeA][Aze][NMeCha][Sar][hPhe(3-Cl-4-CF3)]P[Ac5c][NMeChg][NMeD]-NMe2; lactam N-11) |
| 20 to 50 | CC[C@H](C)[C@@H]1NC(=O)[C@H](CC(C)C)N(C)C(=O)C[C@@H](C)N(C)C(=O)[C@H]([C@@H](C)CC)N(C)C(=O)C2(CCCC2)NC(=O)[C@@H]2CCCN2C(=O)[C@H](CCc2ccc(C(F)(F)F)c(Cl)c2)NC(=O)CN(C)C(=O)[C@H](C2CCCC2)N(C)C(=O)[C@@H]2CCN2C(=O)[C@H](C)N(C)C1=O [Compound 79] (cyclo([Ac5c][NMeI][NMedβ3hAla][NMeL]I[NMeA][Aze][NMeGly(cPent)][Sar][hPhe(3-Cl-4-CF3)]P)) |
| 100 to 500 | CC[C@H](C)[C@@H]1NC(=O)[C@H](CC(C)C)N(C)C(=O)C[C@@H](C)N(C)C(=O)[C@H](C2CCCCC2)N(C)C(=O)C2(CCCC2)NC(=O)[C@@H]2CCCN2C(=O)[C@H](CCc2ccc(C(F)(F)F)c(Cl)c2)NC(=O)CN(C)C(=O)[C@H](Cc2ccc(C(F)(F)F)cc2)N(C)C(=O)[C@@H]2CCN2C(=O)[C@H](C)N(C)C1=O [Compound 348] (cyclo([Ac5c][NMeChg][NMedβ3hAla][NMeL]I[NMeA][Aze][NMePhe(4-CF3)][Sar][hPhe(3-Cl-4-CF3)]P)) |
| 20 to 50 | CC[C@H](C)[C@@H]1NC(=O)[C@H](CC(C)C)N(C)C(=O)C[C@@H](C)N(C)C(=O)[C@H](C2CCCC2)N(C)C(=O)C2(CCCC2)NC(=O)[C@@H]2CC(F)(F)CN2C(=O)[C@H](CCc2cc(F)c(C(F)(F)F)c(F)c2)NC(=O)CN(C)C(=O)[C@H](Cc2ccc(C(F)(F)F)cc2)N(C)C(=O)[C@@H]2CCN2C(=O)[C@H](C)N(C)C1=O [Compound 900] (cyclo([Ac5c][NMeGly(cPent)][NMedβ3hAla][NMeL]I[NMeA][Aze][NMePhe(4-CF3)][Sar][hPhe(3,5-F2-4-CF3)][Pro(4,4-F2)])) |
